Patent publication US8822455B2, “Fused aminodihydrothiazine derivatives” (Eisai R&D Management Co., Ltd., priority 2011, dated 2014)

These molecules were tested on Aβ42 (assay: In vitro cellular assay (Aβ42): quantification of Aβ peptide in culture of neurons from rat fetus brain (ELISA)). Conditions: Primary cortical neuron, 72 h, rat primary cortical neurons (embryonic day 18 Wistar), 3 days after addition of compound, read-out: Cell IC50.
Type: cell-based
Experimental: In vitro Cellular Assay (Aβ42):
Quantification of AβPeptide in Culture of Neurons from Rat Fetus Brain
(1) Rat Primary Neuronal Culture
Primary neuronal cultures were prepared from the cerebral cortex of embryonic day 18 Wistar rats (Charles River, UK). Specifically, the embryos were aseptically removed from pregnant rats under ether anesthesia. The brain was isolated from the embryo and immersed in HBSS (Sigma Aldrich #H9269) containing 10 mM HEPES (Gibco #15630-056). The cerebral cortex was collected from the isolated brain under a stereoscopic microscope. The cerebral cortex fragments collected were enzymatically treated in an enzyme solution containing 0.05% trypsin-EDTA solution (GIBCO, #25300) at 37° C. for 20 minutes to disperse the cells. The cells were then washed twice and then gently resuspended in Neurobasal medium (Gibco #21103) supplemented with 2% B27 supplement (GIBCO #17504-044), 0.5 mM L-glutamine (GIBCO #25030), 1×N2 (GIBCO #17502-048), 100 ug/ml Pen/Strep (GIBCO 15140-122) and 5% heat inactivated FCS (PAA #A15-701). The cell dispersion was filtered through a 40-μm nylon mesh (BD Falcon #352340) to remove the remaining cell mass, and thus a neuronal cell suspension was obtained. The neuronal cell suspension was diluted with the medium above and then plated in a volume of 100 μL/well at an initial cell density of 3.25×10^5 cells/ml in poly-D-lysine coated 96-well culture plate (Greiner #655940). The plated cells were cultured in the culture plate at 37° C. in 5% CO2-95% air for 24 hrs. The total amount of the medium was replaced with ‘assay Neurobasal medium’ (as above excluding heat inactivated FCS), and then the cells were cultured for a further five days.
The drug was added to the culture plate on Day 6 of culture as follows. 8 point compound serial dilutions were generated in DMSO at a concentration of ×1000 that of the final assay concentration (FAC). Compound solutions were then prepared by adding 999 ul of ‘Assay Neurobasal media’ (as described in above section) to 1 ul of DMSO compound stock. The total amount of the medium was removed from each of the cell plate wells, and 200 μL/well of compound solution was added. The final DMSO concentration was 0.1%.
The cells were cultured for either 1 or 3 days after addition of the compound for ABx-40 and ABx-42 assays respectively. 150 μl of sample medium was collected and used as the ELISA sample.
Human/Rat β Amyloid (42) ELISA Kit Wako (#290-62601) and Human/Rat β Amyloid (40) ELISA Kit Wako (#294-62501) from Wako Pure Chemical Industries, Ltd. were used for Aβ ELISA Aβ ELISA was carried out according to the protocols recommended by the manufacturers, described in the documents accompanying the kits. The results were shown as percentage of the control groups and IC50 values for each compound were determined using four parameter logistic fit model using the XLFIT5 software package (IDBS).

SMILES | IC50 [nM]
C[C@H]1OC[C@]2(c3cc(-c4cncnc4)c(F)cc3F)N=C(N)SC[C@H]12 (relative stereo) [Example 31, (4aS*,5R*,7aS*)-7a-(2,4-Difluoro-5-(pyrimidin-5-yl)phenyl)-5-methyl-4a,5,7,7a-tetrahydro-4H-furo[3,4-d][1,3]thiazin-2-amine] | 20
C[C@H]1OC[C@]2(c3cc(-c4cncnc4)ccc3F)N=C(N)SC[C@H]12 [Example 1, (4aS,5R,7aS)-7a-(2-Fluoro-5-(pyrimidin-5-yl)phenyl)-5-methyl-4a,5,7,7a-tetrahydro-4H-furo[3,4-d][1,3]thiazin-2-amine] | 65
C[C@H]1OC[C@]2(c3cc(-c4ncc[nH]4)ccc3F)N=C(N)SC[C@H]12 [Example 2, (4aS,5R,7aS)-7a-(2-Fluoro-5-(1H-imidazo-2-yl)phenyl)-5-methyl-4a,5,7,7a-tetrahydro-4H-furo[3,4-d][1,3]thiazin-2-amine] | 749
C[C@H]1OC[C@]2(c3cc(-c4cnc(-c5cnccn5)[nH]4)ccc3F)N=C(N)SC[C@H]12 [Example 3, (4aS,5R,7aS)-7a-(2-fluoro-5-(2-(pyrazin-2-yl)-1H-imidazol-5-yl)phenyl)-5-methyl-4a,5,7,7a-tetrahydro-4H-furo[3,4-d][1,3]thiazin-2-amine] | 69
C[C@H]1OC[C@]2(c3cc(-c4cccnc4)ccc3F)N=C(N)SC[C@H]12 [Example 4, (4aS,5R,7aS)-7a-(2-Fluoro-5-(pyridin-3-yl)phenyl)-5-methyl-4a,5,7,7a-tetrahydro-4H-furo[3,4-d][1,3]thiazin-2-amine] | 106
C[C@H]1OC[C@]2(c3cc(-c4ccccc4)ccc3F)N=C(N)SC[C@H]12 [Example 5, (4aS,5R,7aS)-7a-(4-Fluoro-[1,1′-biphenyl]-3-yl)-5-methyl-4a,5,7,7a-tetrahydro-4H-furo[3,4-d][1,3]thiazin-2-amine] | 450
C[C@H]1OC[C@]2(c3cc(-c4ccccc4F)ccc3F)N=C(N)SC[C@H]12 [Example 6, (4aS,5R,7aS)-7a-(2′,4-difluoro-[1,1′-biphenyl]-3-yl)-5-methyl-4a,5,7,7a-tetrahydro-4H-furo[3,4-d][1,3]thiazin-2-amine] | 244
C[C@H]1OC[C@]2(c3cc(-c4cccnc4F)ccc3F)N=C(N)SC[C@H]12 [Example 7, (4aS,5R,7aS)-7a-(2-Fluoro-5-(2-fluoropyridin-3-yl)phenyl)-5-methyl-4a,5,7,7a-tetrahydro-4H-furo[3,4-d][1,3]thiazin-2-amine] | 62
COc1cncc(-c2ccc(F)c([C@]34CO[C@H](C)[C@H]3CSC(N)=N4)c2)c1 [Example 8, (4aS,5R,7aS)-7a-(2-fluoro-5-(5-methoxypyridin-3-yl)phenyl)-5-methyl-4a,5,7,7a-tetrahydro-4H-furo[3,4-d][1,3]thiazin-2-amine] | 23
C[C@H]1OC[C@]2(c3cc(-c4cncc(F)c4)ccc3F)N=C(N)SC[C@H]12 [Example 9, (4aS,5R,7aS)-7a-(2-Fluoro-5-(5-fluoropyridin-3-yl)phenyl)-5-methyl-4a,5,7,7a-tetrahydro-4H-furo[3,4-d][1,3]thiazin-2-amine] | 60
C[C@H]1OC[C@]2(c3cc(-c4ccc(F)nc4)ccc3F)N=C(N)SC[C@H]12 [Example 10, (4aS,5R,7aS)-7a-(2-Fluoro-5-(6-fluoropyridin-3-yl)phenyl)-5-methyl-4a,5,7,7a-tetrahydro-4H-furo[3,4-d][1,3]thiazin-2-amine] | 94
COc1ccc(-c2ccc(F)c([C@]34CO[C@H](C)[C@H]3CSC(N)=N4)c2)cn1 [Example 11, (4aS,5R,7aS)-7a-(2-Fluoro-5-(6-methoxypyridin-3-yl)phenyl)-5-methyl-4a,5,7,7a-tetrahydro-4H-furo[3,4-d][1,3]thiazin-2-amine] | 839
C[C@H]1OC[C@]2(c3cc(-c4cc(F)ccc4F)ccc3F)N=C(N)SC[C@H]12 [Example 12, (4aS,5R,7aS)-5-Methyl-7a-(2′,4,5′-trifluoro-[1,1′-biphenyl]-3-yl)-4a,5,7,7a-tetrahydro-4H-furo[3,4-d][1,3]thiazin-2-amine] | 114
C[C@H]1OC[C@]2(c3cc(-c4cncc(C#N)c4)ccc3F)N=C(N)SC[C@H]12 [Example 13, 5-(3-((4aS,5R,7aS)-2-Amino-5-methyl-4a,5,7,7a-tetrahydro-4H-furo[3,4-d][1,3]thiazin-7a-yl)-4-fluorophenyl)nicotinonitrile] | 62
C[C@H]1OC[C@]2(c3cc(-c4cncc(C(F)(F)F)c4)ccc3F)N=C(N)SC[C@H]12 [Example 14, (4aS,5R,7aS)-7a-(2-Fluoro-5-(5-(trifluoromethyl)pyridine-3-yl)phenyl)-5-methyl-4a,5,7,7a-tetrahydro-4H-furo[3,4-d][1,3]thiazin-2-amine] | 136
Cc1cncc(-c2ccc(F)c([C@]34CO[C@H](C)[C@H]3CSC(N)=N4)c2)c1 [Example 15, (4aS,5R,7aS)-7a-(2-Fluoro-5-(5-methylpyridin-3-yl)phenyl)-5-methyl-4a,5,7,7a-tetrahydro-4H-furo[3,4-d][1,3]thiazin-2-amine] | 101
Cc1cnc(F)c(-c2ccc(F)c([C@]34CO[C@H](C)[C@H]3CSC(N)=N4)c2)c1 [Example 16, (4aS,5R,7aS)-7a-(2-fluoro-5-(2-fluoro-5-methylpyridin-3-yl)phenyl)-5-methyl-4a,5,7,7a-tetrahydro-4H-furo[3,4-d][1,3]thiazin-2-amine] | 58
C[C@H]1OC[C@]2(c3cc(-c4ccn[nH]4)ccc3F)N=C(N)SC[C@H]12 [Example 17, (4aS,5R,7aS)-7a-(2-Fluoro-5-(1H-pyrazol-5-yl)phenyl)-5-methyl-4a,5,7,7a-tetrahydro-4H-furo[3,4-d][1,3]-thiazin-2-amine] | 977
Cc1ncccc1-c1ccc(F)c([C@]23CO[C@H](C)[C@H]2CSC(N)=N3)c1 [Example 18, (4aS,5R,7aS)-7a-(2-fluoro-5-(2-methylpyridin-3-yl)phenyl)-5-methyl-4a,5,7,7a-tetrahydro-4H-furo[3,4-d][1,3]thiazin-2-amine] | 217
CC#Cc1cncc(-c2ccc(F)c([C@]34CO[C@H](C)[C@H]3CSC(N)=N4)c2)c1 [Example 19, (4aS,5R,7aS)-7a-(2-fluoro-5-(5-(prop-1-yn-1-yl)pyridin-3-yl)phenyl)-5-methyl-4a 5,7,7a-tetrahydro-4H-furo[3,4-d][1,3]thiazin-2-amine] | 17
C[C@H]1OC[C@]2(c3cc(-c4ccnn4C)ccc3F)N=C(N)SC[C@H]12 [Example 20, (4aS,5R,7aS)-7a-(2-fluoro-5-(1-methyl-1H-pyrazol-5-yl)phenyl)-5-methyl-4a,5,7,7a-tetrahydro-4H-furo[3,4-d]thiazin-2-amine] | > 1000
C[C@H]1OC[C@]2(c3cc(-c4cncc(OC5CC5)c4)ccc3F)N=C(N)SC[C@H]12 [Example 21, (4aS,5R,7aS)-7a-(5-(5-cyclopropoxypyridin-3-yl)-2-fluorophenyl)-5-methyl-4a,5,7,7a-tetrahydro-4H-furo[3,4-d][1,3]thiazin-2-amine] | 127
C[C@H]1OC[C@]2(c3cc(-c4cnccn4)ccc3F)N=C(N)SC[C@H]12 [Example 22, (4aS,5R,7aS)-7a-(2-fluoro-5-(pyrazin-2-yl)phenyl)-5-methyl-4a,5,7,7a-tetrahydro-4H-furo[3,4-d][1,3]thiazin-2-amine] | 55
C[C@H]1OC[C@]2(c3cc(-c4cccnn4)ccc3F)N=C(N)SC[C@H]12 [Example 23, (4aS,5R,7aS)-7a-(2-fluoro-5-(pyridazin-3-yl)phenyl)-5-methyl-4a,5,7,7a-tetrahydro-4H-furo[3,4-d][1,3]thiazin-2-amine] | 572
COc1cccc(-c2ccc(F)c([C@]34CO[C@H](C)[C@H]3CSC(N)=N4)c2)n1 [Example 24, (4aS,5R,7aS)-7a-(2-fluoro-5-(6-methoxypyridin-2-yl)phenyl)-5-methyl-4a,5,7,7a-tetrahydro-4H-furo[3,4-d][1,3]thiazin-2-amine] | > 1000
